Positions count from the first letter of the chain named. Like-named read-outs stand apart in the source and are kept apart here.
How the values were obtained:
TESK1 = TESK1 (Homo sapiens, UniProt Q15569); assay: KINOMEscan: TESK1; format: binding; conditions: 100 nM, read-out: Percent Control
Nicotinic Acetylcholine = assay: Eurofins Diversity Panel; format: binding, human; conditions: hum, Conc. 10 μM
SGK = SGK (Homo sapiens, UniProt O00141); assay: KINOMEscan: SGK; format: binding; conditions: 100 nM, read-out: Percent Control
[1] = tested on: broad range of receptors, transporters, ion channels, and enzymes; assay: Eurofins Diversity Panel, whole panel (n = 138); format: binding; conditions: 10 µM, except imidazoline I2, Sigma σ1, adrenergic α2A, α2B, α2C
DDR1 = DDR1 (Homo sapiens, UniProt Q08345); assay: KINOMEscan: DDR1; format: binding; conditions: 1000 nM, read-out: Percent Control
Chain of DDR1 (Q08345 19-913): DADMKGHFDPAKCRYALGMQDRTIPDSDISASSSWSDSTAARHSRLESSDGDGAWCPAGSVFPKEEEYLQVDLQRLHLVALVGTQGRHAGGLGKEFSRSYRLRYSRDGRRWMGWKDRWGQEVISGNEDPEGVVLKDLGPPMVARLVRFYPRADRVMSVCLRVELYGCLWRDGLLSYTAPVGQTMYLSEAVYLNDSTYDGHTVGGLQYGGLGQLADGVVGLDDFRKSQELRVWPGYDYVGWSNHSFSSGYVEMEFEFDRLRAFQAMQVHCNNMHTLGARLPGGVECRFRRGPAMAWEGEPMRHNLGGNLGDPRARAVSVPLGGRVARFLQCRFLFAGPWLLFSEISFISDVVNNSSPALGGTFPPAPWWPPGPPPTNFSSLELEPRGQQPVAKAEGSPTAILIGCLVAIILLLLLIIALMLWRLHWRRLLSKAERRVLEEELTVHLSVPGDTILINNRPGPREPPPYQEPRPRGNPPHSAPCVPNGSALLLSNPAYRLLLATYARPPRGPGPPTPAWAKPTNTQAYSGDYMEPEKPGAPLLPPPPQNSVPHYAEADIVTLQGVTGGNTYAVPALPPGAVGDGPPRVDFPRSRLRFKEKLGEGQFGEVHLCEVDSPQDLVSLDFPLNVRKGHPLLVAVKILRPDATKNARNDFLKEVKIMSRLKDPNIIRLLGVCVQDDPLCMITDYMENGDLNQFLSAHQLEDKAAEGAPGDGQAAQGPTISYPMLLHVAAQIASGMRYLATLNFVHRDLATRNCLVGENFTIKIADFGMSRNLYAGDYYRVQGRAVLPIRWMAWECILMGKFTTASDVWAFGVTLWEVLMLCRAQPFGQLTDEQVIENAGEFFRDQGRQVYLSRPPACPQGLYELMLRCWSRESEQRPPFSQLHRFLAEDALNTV

FLT3(D835Y) = FLT3(D835Y) (Homo sapiens, UniProt P36888, D835Y); assay: KINOMEscan: FLT3(D835Y); format: binding; conditions: 1000 nM, read-out: Percent Control
RET(M918T) = RET(M918T) (Homo sapiens, UniProt P07949, M918T); assay: KINOMEscan: RET(M918T); format: binding; conditions: 100 nM, read-out: Percent Control
Chain of RET(M918T) (P07949 29-1114 M918T): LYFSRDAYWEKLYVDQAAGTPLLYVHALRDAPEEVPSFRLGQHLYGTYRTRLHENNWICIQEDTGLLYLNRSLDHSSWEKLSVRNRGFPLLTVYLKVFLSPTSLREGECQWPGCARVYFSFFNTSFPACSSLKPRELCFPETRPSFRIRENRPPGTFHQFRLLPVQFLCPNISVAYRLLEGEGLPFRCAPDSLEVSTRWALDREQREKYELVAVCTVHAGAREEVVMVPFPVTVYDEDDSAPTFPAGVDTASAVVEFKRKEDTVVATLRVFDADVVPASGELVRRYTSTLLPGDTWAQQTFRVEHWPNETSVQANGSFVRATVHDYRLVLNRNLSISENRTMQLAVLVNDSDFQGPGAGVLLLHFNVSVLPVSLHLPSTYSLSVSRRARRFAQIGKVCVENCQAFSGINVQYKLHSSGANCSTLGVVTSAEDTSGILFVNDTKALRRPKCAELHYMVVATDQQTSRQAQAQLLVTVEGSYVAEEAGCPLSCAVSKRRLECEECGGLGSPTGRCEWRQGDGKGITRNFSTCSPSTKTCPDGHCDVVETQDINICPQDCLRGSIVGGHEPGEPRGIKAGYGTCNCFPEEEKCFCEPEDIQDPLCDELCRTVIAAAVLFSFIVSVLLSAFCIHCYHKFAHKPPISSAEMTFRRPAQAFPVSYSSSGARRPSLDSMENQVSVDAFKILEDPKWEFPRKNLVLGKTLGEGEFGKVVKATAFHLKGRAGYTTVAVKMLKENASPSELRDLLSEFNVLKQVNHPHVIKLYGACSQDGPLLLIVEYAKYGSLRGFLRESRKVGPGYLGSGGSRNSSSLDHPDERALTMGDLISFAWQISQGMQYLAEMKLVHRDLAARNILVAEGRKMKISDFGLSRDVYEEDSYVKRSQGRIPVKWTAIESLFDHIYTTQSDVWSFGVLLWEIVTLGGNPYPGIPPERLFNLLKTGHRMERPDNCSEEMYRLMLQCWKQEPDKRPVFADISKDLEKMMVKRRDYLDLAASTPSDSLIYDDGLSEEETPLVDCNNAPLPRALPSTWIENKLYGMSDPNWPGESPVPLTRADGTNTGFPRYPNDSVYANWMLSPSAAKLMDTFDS

IRAK1 = IRAK1 (Homo sapiens, UniProt P51617); assay: KINOMEscan: IRAK1; format: binding
Chain of IRAK1 (P51617 whole entry): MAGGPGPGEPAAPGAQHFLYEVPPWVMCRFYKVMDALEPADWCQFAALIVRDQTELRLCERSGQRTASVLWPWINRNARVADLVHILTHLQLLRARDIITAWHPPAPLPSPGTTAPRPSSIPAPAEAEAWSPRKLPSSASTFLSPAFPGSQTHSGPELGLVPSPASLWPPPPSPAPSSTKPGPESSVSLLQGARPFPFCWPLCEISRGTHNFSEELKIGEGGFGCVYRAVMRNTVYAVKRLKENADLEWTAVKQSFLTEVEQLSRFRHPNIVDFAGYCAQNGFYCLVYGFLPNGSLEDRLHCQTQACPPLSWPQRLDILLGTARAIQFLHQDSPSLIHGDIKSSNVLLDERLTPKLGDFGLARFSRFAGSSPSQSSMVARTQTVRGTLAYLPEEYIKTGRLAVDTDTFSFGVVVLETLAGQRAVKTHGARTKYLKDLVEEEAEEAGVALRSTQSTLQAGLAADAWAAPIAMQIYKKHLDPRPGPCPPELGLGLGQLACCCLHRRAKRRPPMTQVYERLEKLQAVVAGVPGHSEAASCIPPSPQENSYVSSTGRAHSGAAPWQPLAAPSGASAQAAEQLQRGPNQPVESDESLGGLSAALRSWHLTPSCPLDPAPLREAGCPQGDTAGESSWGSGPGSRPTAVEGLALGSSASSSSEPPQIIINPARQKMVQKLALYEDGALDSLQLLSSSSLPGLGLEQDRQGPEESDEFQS
Procedure: (§1) The structure and synthesis of VIP152 were recently described by Lücking et al.. (Fig. 1A); however, the selectivity of the molecule in cellular systems has yet to be explored. […] We also performed this experiment at 1000 nM, where CDK9 was inhibited at 99%. […] We found a strong concordance between our data and those of Lücking when comparing the most inhibited kinases. Potential off-target effects of VIP152 were next tested in vitro at a concentration of 10 µM for off-target activity against a broad range of receptors, transporters, ion channels, and enzymes (n = 138) using the Eurofins Diversity Panel.
(§2) Kinomescan Kinase Profiling Assay
(§3) Kinomescan Assay was performed at DiscoverRX and described in Fabian, et al. 2005, Nat.
(§4) Biotechnol. In brief, kinases were produced and subsequently tagged with DNA for qPCR detection.
(§5) Streptavidin-coated magnetic beads were bound to biotinylated kinase ligands to serve as a solid support.
(§6) VIP152 was dissolved in DMSO and tested across a 10 serial threefold dilution set and compared to a test compound and a DMSO control. Kinases which were inhibited by VIP152 would not be bound to the solid-support resulting in decreased substrate for the qPCR reaction. Kinome map was produced via TreeSpot Analysis from DiscoverRX. […]
NanoBRETTM Target Engagement Assay Protocol […]
Complete 20X NanoBRET Tracer Reagent was prepared with Tracer Dilution Buffer and dispensed at a ratio of 1:20 Reagent to cells in the tube. The cell

MLK1 = MLK1 (Homo sapiens, UniProt P80192); assay: KINOMEscan: MLK1; format: binding; conditions: 1000 nM, read-out: Percent Control
ALK = ALK (Homo sapiens, UniProt Q9UM73); assay: KINOMEscan: ALK; format: binding; conditions: 1000 nM, read-out: Percent Control
Chain of ALK (Q9UM73 19-1620): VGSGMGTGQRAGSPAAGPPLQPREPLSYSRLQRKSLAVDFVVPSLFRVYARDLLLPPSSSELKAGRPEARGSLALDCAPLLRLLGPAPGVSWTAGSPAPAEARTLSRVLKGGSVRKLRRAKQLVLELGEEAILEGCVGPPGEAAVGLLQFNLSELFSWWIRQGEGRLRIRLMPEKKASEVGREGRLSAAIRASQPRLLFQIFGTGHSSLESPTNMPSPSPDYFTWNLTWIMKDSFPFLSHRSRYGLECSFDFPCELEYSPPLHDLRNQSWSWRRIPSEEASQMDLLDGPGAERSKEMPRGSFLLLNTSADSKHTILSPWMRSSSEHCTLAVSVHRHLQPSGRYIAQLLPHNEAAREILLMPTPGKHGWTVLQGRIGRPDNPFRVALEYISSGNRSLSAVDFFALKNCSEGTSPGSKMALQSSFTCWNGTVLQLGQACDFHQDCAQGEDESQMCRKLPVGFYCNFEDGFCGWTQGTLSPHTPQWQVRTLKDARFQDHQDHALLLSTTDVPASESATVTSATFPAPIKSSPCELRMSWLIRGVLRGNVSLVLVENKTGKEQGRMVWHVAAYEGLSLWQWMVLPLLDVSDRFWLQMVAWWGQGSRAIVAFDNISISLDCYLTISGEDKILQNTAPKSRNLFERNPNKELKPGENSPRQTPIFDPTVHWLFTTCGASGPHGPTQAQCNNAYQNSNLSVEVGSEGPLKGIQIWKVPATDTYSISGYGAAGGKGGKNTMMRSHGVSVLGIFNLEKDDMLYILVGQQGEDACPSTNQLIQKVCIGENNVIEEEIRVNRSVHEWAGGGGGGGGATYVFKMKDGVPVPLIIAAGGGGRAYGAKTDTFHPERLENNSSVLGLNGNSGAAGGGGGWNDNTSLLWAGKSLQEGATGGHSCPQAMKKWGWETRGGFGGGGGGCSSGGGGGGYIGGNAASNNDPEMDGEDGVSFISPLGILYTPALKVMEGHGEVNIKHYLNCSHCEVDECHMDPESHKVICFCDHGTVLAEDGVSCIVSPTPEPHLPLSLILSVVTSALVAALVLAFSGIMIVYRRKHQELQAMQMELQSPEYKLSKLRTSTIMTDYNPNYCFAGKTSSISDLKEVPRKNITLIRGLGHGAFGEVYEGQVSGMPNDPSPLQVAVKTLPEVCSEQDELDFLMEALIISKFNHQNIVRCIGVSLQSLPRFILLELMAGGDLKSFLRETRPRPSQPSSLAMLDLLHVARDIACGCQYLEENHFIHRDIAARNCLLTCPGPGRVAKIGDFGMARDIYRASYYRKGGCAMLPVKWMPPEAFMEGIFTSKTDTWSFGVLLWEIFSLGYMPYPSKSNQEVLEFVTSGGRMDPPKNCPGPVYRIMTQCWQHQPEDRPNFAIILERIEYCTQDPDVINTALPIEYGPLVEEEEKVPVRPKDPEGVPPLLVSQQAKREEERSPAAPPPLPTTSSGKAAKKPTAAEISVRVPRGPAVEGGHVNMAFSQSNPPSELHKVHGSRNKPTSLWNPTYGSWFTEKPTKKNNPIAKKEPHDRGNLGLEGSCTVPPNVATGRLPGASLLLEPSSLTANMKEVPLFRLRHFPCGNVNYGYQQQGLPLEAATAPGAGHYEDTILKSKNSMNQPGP

Neuropeptide Y Y2 = Neuropeptide Y Y2 (Homo sapiens, UniProt P49146); assay: Eurofins Diversity Panel; format: binding; conditions: hum, Conc. 10 μM
Chain of Neuropeptide Y Y2 (P49146 whole entry): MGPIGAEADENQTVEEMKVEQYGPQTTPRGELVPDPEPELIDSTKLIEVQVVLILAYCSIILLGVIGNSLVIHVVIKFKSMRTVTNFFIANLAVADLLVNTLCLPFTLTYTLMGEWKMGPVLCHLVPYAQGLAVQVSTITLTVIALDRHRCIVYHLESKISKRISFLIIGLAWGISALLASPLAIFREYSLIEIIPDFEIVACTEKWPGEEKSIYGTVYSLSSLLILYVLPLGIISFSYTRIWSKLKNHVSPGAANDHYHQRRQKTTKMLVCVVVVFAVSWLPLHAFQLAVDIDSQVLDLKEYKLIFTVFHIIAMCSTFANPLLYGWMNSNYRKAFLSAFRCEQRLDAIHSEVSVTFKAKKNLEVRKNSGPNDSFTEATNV

Bradykinin B1 = Bradykinin B1 (Homo sapiens, UniProt P46663); assay: Eurofins Diversity Panel; format: binding; conditions: hum, Conc. 10 μM
Chain of Bradykinin B1 (P46663 whole entry): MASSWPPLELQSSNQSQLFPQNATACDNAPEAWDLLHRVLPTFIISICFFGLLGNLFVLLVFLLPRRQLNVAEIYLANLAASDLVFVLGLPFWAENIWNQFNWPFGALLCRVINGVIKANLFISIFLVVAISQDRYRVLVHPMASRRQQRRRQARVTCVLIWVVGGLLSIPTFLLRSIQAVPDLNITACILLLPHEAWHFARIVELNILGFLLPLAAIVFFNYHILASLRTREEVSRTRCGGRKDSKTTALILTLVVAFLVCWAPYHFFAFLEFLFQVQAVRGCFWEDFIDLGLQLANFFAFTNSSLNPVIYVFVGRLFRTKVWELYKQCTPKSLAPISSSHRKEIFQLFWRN

[2] = target: JAK2(JH1domain-catalytic) (Homo sapiens, UniProt O60674); assay: KINOMEscan: JAK2(JH1domain-catalytic); format: binding; conditions: 1000 nM, read-out: Percent Control
ABL1 [3] = target: T1, ABL1 (Homo sapiens, UniProt P00519, Q252H); assay: KINOMEscan: ABL1; format: binding; conditions: read-out: Percent Control; for remaining binding at 0.1 µM: 100 nM; for remaining binding at 1 µM: 1000 nM
T1 sequence (P00519 229-512 Q252H): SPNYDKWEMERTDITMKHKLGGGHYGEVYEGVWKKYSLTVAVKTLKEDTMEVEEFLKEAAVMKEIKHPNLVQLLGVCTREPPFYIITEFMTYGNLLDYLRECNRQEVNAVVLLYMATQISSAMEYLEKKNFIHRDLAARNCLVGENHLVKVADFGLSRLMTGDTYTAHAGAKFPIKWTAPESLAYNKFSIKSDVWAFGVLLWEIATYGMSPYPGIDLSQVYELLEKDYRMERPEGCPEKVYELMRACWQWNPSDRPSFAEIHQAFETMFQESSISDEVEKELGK
Procedure: as §1, §2, §3, §4, §5, §6

ABL1 [4] = target: T2, ABL1 (Homo sapiens, UniProt P00519, T315I); assay: KINOMEscan: ABL1; format: binding; conditions: read-out: Percent Control; for remaining binding at 0.1 µM: 100 nM; for remaining binding at 1 µM: 1000 nM
T2 sequence (P00519 229-512 T315I): T1 sequence (P00519 229-512 Q252H) with H24Q, T87I
Procedure: as §1, §2, §3, §4, §5, §6

ABL1 [5] = target: T3, ABL1 (Homo sapiens, UniProt P00519, F317L); assay: KINOMEscan: ABL1; format: binding; conditions: read-out: Percent Control; for remaining binding at 0.1 µM: 100 nM; for remaining binding at 1 µM: 1000 nM
T3 sequence (P00519 229-512 F317L): T1 sequence (P00519 229-512 Q252H) with H24Q, F89L
Procedure: as §1, §2, §3, §4, §5, §6

ABL1 [6] = assay: KINOMEscan: ABL1; format: binding, human; conditions: 1000 nM
Procedure: as §1, §2, §3, §4, §5, §6

ANKK1 = ANKK1 (Homo sapiens, UniProt Q8NFD2); assay: KINOMEscan: ANKK1; format: binding; conditions: 1000 nM, read-out: Percent Control
EPHB6 = EPHB6 (Homo sapiens, UniProt O15197); assay: KINOMEscan: EPHB6; format: binding; conditions: 1000 nM, read-out: Percent Control

COc1cc(F)ccc1-c1cc(Nc2cc(CS(C)(=N)=O)ccn2)ncc1F (stereo not drawn) [VIP152] was tested, and the remaining binding at 0.1 µM (TESK1) was 100%, the “% Inh.” value (Nicotinic Acetylcholine) was -9% and the remaining binding at 0.1 µM (SGK) was 100%. The “off-target activity across the panel” value [1] was “No significant (>50%) interference”, the remaining binding at 1 µM (DDR1) was 29% and the remaining binding at 1 µM (FLT3(D835Y)) was 67%. The remaining binding at 0.1 µM (RET(M918T)) was 100%, the inhibition at 1 µM (IRAK1; 1000 nM) was 98.4% and the remaining binding at 0.1 µM (IRAK1; IRAK1, 100 nM, read-out: Percent Control) was 59%. It also gave a remaining binding at 1 µM (IRAK1; IRAK1, 1000 nM, read-out: Percent Control) of 1.6%, a remaining binding at 1 µM (MLK1) of 76% and a remaining binding at 1 µM (ALK) of 92%. The inhibition at 10 µM (Neuropeptide Y Y2) was 3%, the inhibition at 10 µM (Bradykinin B1) was 1% and the remaining binding at 1 µM [2] was 66%. For the same molecule, the remaining binding at 0.1 µM (ABL1 [3]; ABL1(Q252H)-nonphosphorylated) was 72%, the remaining binding at 1 µM (ABL1 [3]; ABL1(Q252H)-nonphosphorylated) was 25% and the remaining binding at 0.1 µM (ABL1 [3]; ABL1(Q252H)-phosphorylated) was 100%. For the same molecule, the remaining binding at 1 µM (ABL1 [3]; ABL1(Q252H)-phosphorylated) was 46%, the remaining binding at 0.1 µM (ABL1 [4]; ABL1(T315I)-nonphosphorylated) was 96% and the remaining binding at 1 µM (ABL1 [4]; ABL1(T315I)-nonphosphorylated) was 3.2%. For the same molecule, the remaining binding at 0.1 µM (ABL1 [4]; ABL1(T315I)-phosphorylated) was 95%, the remaining binding at 1 µM (ABL1 [4]; ABL1(T315I)-phosphorylated) was 53% and the remaining binding at 0.1 µM (ABL1 [5]; ABL1(F317L)-nonphosphorylated) was 100%. The remaining binding at 1 µM (ABL1 [5]; ABL1(F317L)-nonphosphorylated) was 52%, the remaining binding at 0.1 µM (ABL1 [5]; ABL1(F317L)-phosphorylated) was 95% and the remaining binding at 1 µM (ABL1 [5]; ABL1(F317L)-phosphorylated) was 56%. For the same molecule, the “inhibition of ABL1” value (ABL1 [6]) was 96.8%, the remaining binding at 1 µM (ANKK1) was 83% and the remaining binding at 1 µM (EPHB6) was 13%.
